Test results reported in publication PMC7251097, “Aspartate/asparagine-β-hydroxylase: a high-throughput mass spectrometric assay for discovery of small molecule inhibitors” (Scientific Reports, 2020).
Structures can show the parent of a compound that is named as a salt. Where two headings read alike, the source gives them in different places.

Target: T1, His6-AspH315–758 (human aspartate/asparagine-β-hydroxylase, AspH) (Homo sapiens, UniProt Q12797)
T1 construct: N-Terminally His6-tagged human AspH315–758 (His6-AspH315–758) was produced in E. coli BL21 (DE3) cells; made in house; host or cells: E. coli BL21 (DE3), pET-28a(+) vector
T1 sequence (Q12797 315-758): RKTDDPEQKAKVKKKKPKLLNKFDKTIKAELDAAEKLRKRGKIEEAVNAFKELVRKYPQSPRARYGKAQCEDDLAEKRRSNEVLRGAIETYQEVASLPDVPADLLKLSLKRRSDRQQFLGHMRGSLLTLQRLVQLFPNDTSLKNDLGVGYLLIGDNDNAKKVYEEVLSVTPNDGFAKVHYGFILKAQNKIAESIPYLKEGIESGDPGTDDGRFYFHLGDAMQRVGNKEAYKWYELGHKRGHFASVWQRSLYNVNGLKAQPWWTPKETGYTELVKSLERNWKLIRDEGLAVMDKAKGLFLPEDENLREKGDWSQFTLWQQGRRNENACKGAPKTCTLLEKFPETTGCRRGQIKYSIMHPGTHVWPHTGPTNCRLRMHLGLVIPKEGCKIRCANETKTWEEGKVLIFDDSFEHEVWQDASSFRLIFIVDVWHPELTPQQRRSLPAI
Test: SPE-MS AspH inhibition assay (LOPAC screen at fixed 20 μM and IC50 dose-response), hydroxylation of cyclic peptide hFX-CP101–119
Format: biochemical
Settings: for Plate 3 (% conversion): LOPAC compound at 20uM, conversion of substrate peptide

[1] = LOPAC compound at fixed 20 uM, plate 1, normalised to DMSO and 2,4-PDCA controls
[2] = LOPAC compound at fixed 20 uM, substrate conversion, plate 1
[3] = LOPAC Plate 4, compound at 20 uM, substrate conversion
[4] = LOPAC Plate 4, compound at 20 uM, read-out: % inhibition
[5] = plate 5 (Pfitzer), test compounds at fixed 20 μM
[6] = plate 5 (Pfitzer), test compounds at fixed 20 μM, mean conversion DMSO 32.88
[7] = LOPAC Plate 4, compound at 20 uM

With CCN1/C(=C/C(C)=O)Sc2ccc(OC)cc21 [TG003] the “Plate 3 (% conversion)” value was 40.97%.
For Cl.O=c1[nH]oc2c1CCNC2 [THIP hydrochloride], the “% conversion” value was 36.67% and the “% inhibition” value (20 µM) was -0.58%.
With CCN(CC)CCCCCCCCOC(=O)c1cc(OC)c(OC)c(OC)c1.Cl [TMB-8 hydrochloride] the “Plate 1 (% inhibition)” value [1] was -14.63% and the “Plate 1 (% conversion)” value [2] was 40.78%.
With CCCCCCC(=O)OC1CC(C)(C)NC(C)(C)C1.Cl [TMPH hydrochloride] the “Plate 3 (% conversion)” value was 40.82%.
In the case of CP(=O)(O)C1=CCNCC1 [TPMPA], the “% conversion” value is reported as 27.88%.
C/C(=C\c1ccc(C(=O)O)cc1)c1ccc2c(c1)C(C)(C)CCC2(C)C [TTNPB] was tested, and the “% conversion” value [3] was 26.33%.
With CC/C(=C(\c1ccccc1)c1ccc(OCCN(C)C)cc1)c1ccccc1 [Tamoxifen citrate] the “% conversion” value [3] was 11.73% and the inhibition at 20 µM [4] was 72.5%.
For NCCS(=O)(=O)O [Taurine], the “% conversion” value [3] was 39.69% and the inhibition at 20 µM [4] was -9.43%.
In the case of CCOC(=O)c1ccc(C#Cc2ccc3c(c2)C(C)(C)CCS3)nc1 [Tazarotene], the “% conversion” value [3] is reported as 39.09%.
In the case of O=c1[nH]c(=O)n(C2CCCO2)cc1F (centres unmarked) [Tegafur], the “% conversion” value [3] is reported as 31.54%.
Cc1scc2c1N(C(=O)CN1CCN(C)CC1)c1ccccc1NC2=O [Telenzepine dihydrochloride] was tested, and the “% conversion” value [3] was 38.43% and the inhibition at 20 µM [4] was -5.75%.
In the case of CO[C@H]1C[C@@H]2CC[C@@H](C)[C@@](O)(O2)C(=O)C(=O)N2CCCC[C@H]2C(=O)O[C@H]([C@H](C)C[C@@H]2CC[C@@H](OC(=O)C(C)(CO)CO)[C@H](OC)C2)CC(=O)[C@H](C)/C=C(\C)[C@@H](O)[C@@H](OC)C(=O)[C@H](C)C[C@H](C)/C=C/C=C/C=C/1C [Temsirolimus], the “Plate 5 (% inhibition)” value [5] is reported as 52.39% and the “Plate 5 (% conversion)” value [6] is reported as 18.48%.
In the case of CC(C)(C)NCC(O)c1cc(O)cc(O)c1.CC(C)(C)NCC(O)c1cc(O)cc(O)c1.O=S(=O)(O)O (centres unmarked) [Terbutaline hemisulfate], the “% inhibition” value [7] is reported as 5.48% and the “% conversion” value [3] is reported as 34.60%.
With CC(C)(C)c1ccc(C(O)CCCN2CCC(C(O)(c3ccccc3)c3ccccc3)CC2)cc1 (centres unmarked) [Terfenadine] the “% conversion” value [3] was 45.15% and the inhibition at 20 µM [4] was -25.4%.
With COc1cc2c(cc1OC)C1CC(=O)C(CC(C)C)CN1CC2 (centres unmarked) [Tetrabenazine] the “% conversion” value [3] was 27.36%.
For CCCCNc1ccc(C(=O)OCCN(C)C)cc1 [Tetracaine hydrochloride], the “% conversion” value [3] was 40.45% and the inhibition at 20 µM [4] was -11.7%.
For CCCCCCCCCCCCCCSCC(=O)O [Tetradecylthioacetic acid], the “% conversion” value [3] was 26.50% and the inhibition at 20 µM [4] was 29.2%.
In the case of CC[N+](CC)(CC)CC [Tetraethylammonium chloride], the “% conversion” value is reported as 26.96%.
In the case of CCN(CC)C(=S)SSC(=S)N(CC)CC [Tetraethylthiuram disulfide], the “% conversion” value [3] is reported as 22.31%.
c1ccc2c(c1)CCCC2C1=NCCN1 (centres unmarked) [Tetrahydrozoline hydrochloride] was tested, and the “% conversion” value [3] was 39.98% and the inhibition at 20 µM [4] was -10.3%.
With CC(C)NP(=O)(NC(C)C)OP(=O)(NC(C)C)NC(C)C [Tetraisopropyl pyrophosphoramide] the “% conversion” value was 27.56%.
In the case of c1ccc(C2CN3CCSC3=N2)cc1 (centres unmarked) [Tetramisole hydrochloride], the “% conversion” value [3] is reported as 38.57%.
C/C=C(/C)C(=O)O[C@H]1C(C)=C2[C@H]([C@@H]1OC(=O)CCCCCCC)[C@@](C)(OC(C)=O)C[C@H](OC(=O)CCC)[C@@]1(O)[C@H]2OC(=O)[C@@]1(C)O [Thapsigargin] was tested, and the “% conversion” value was 31.20%.
Cn1cnc2c1c(=O)[nH]c(=O)n2C [Theobromine] was tested, and the “% conversion” value [3] was 26.15%.
With Cn1c(=O)c2[nH]cnc2n(C)c1=O [Theophylline] the “% conversion” value was 39.26% and the inhibition at 20 µM was -8.17%.
With NC(=S)c1ccc[n+]([C@@H]2O[C@@H](COP(=O)([O-])OP(=O)(O)OC[C@H]3O[C@@H](n4cnc5c(N)ncnc54)C(OP(=O)([O-])O)[C@H]3O)C(O)C2O)c1.[Na+] (some centres unmarked) [Thio-NADP sodium] the “% conversion” value [3] was 24.90%.
S=C(NC1CCCCC1)N1CCC(c2cnc[nH]2)CC1 [Thioperamide maleate] was tested, and the “% conversion” value was 37.27% and the inhibition at 20 µM [4] was -2.35%.
For CSc1ccc2c(c1)N(CCC1CCCCN1C)c1ccccc1S2 (centres unmarked) [Thioridazine hydrochloride], the “% conversion” value [3] was 43.98%.
In the case of CCN(CC)CCNC(=O)c1cc(S(C)(=O)=O)ccc1OC [Tiapride hydrochloride], the “% conversion” value [3] is reported as 37.21% and the inhibition at 20 µM [4] is reported as -2.16%.
CN(C)c1cc(NC(=O)CNC(C)(C)C)c(O)c2c1C[C@H]1C[C@H]3[C@H](N(C)C)C(O)=C(C(N)=O)C(=O)[C@@]3(O)C(O)=C1C2=O [Tigecycline, tigecycline, reference compound] was tested, and the IC50 (50 nM His6-AspH315–758, 1.0 μM hFX-CP101–119, 3 μM 2OG, 2 μM Fe(II), 50 mM HEPES pH 7.5, 20 °C, mean ± SD, n = 2 (2,4-PDCA n = 10), read-out: IC50) was 7.6 ± 1.95 µM, the inhibition at 20 µM (AspH activity, fixed compound concentration 20 μM, initial LOPAC screen, 0.5%v/v DMSO, read-out: Inhibition at 20 µM [%]) was 95.3% and the “Plate 5 (% inhibition)” value [5] was 90.85%. For the same compound, the “Plate 5 (% conversion)” value [6] was 5.39%.
For CCCCS(=O)(=O)N[C@@H](Cc1ccc(OCCCCC2CCNCC2)cc1)C(=O)O [Tirofiban hydrochloride monohydrate], the “% conversion” value [3] was 29.35%.
Clc1ccc2nsnc2c1NC1=NCCN1 [Tizanidine hydrochloride] was tested, and the “% conversion” value [3] was 37.51%.
In the case of Cc1ccc(S(=O)(=O)NC(=O)NN2CCCCCC2)cc1 [Tolazamide], the “% conversion” value [3] is reported as 36.66%.
CCCCNC(=O)NS(=O)(=O)c1ccc(C)cc1 [Tolbutamide] was tested, and the “% conversion” value [3] was 37.22% and the inhibition at 20 µM [4] was -2.2%.
In the case of Cc1ccc(O)c([C@H](CCN(C(C)C)C(C)C)c2ccccc2)c1 [Tolterodine], the “Plate 5 (% conversion)” value is reported as 15.18% and the “Plate 5 (% inhibition)” value is reported as 62.09%.
CNCC[C@@H](Oc1ccccc1C)c1ccccc1 [Tomoxetine] was tested, and the “% conversion” value [3] was 38.97% and the inhibition at 20 µM [4] was -7.33%.
CC[C@@]1(O)C(=O)OCc2c1cc1n(c2=O)Cc2cc3c(CN(C)C)c(O)ccc3nc2-1.Cl.O [Topotecan hydrochloride hydrate] was tested, and the “Plate 3 (% conversion)” value was 37.14%.
CCOC(=O)N1c2ccc(C(F)(F)F)cc2[C@@H](N(Cc2cc(C(F)(F)F)cc(C(F)(F)F)c2)C(=O)OC)C[C@H]1CC [Torcetrapib] was tested, and the “Plate 5 (% inhibition)” value [5] was 13.93% and the “Plate 5 (% conversion)” value [6] was 31.57%.
CCOC(=O)[C@H](CCc1ccccc1)N[C@@H](C)C(=O)N1[C@H](C(=O)O)C[C@H]2CCCC[C@@H]21 [Trandolapril] was tested, and the “Plate 3 (% conversion)” value was 36.50%.
In the case of COc1ccc(/C=C/C(=O)Nc2ccccc2C(=O)O)cc1OC [Tranilast], the “% conversion” value [3] is reported as 35.26%.
For N[C@@H]1C[C@H]1c1ccccc1 [Tranylcypromine hydrochloride], the “% conversion” value was 34.80%.
O=c1n(CCCN2CCN(c3cccc(Cl)c3)CC2)nc2ccccn12 [Trazodone hydrochloride] was tested, and the “% conversion” value [3] was 39.67% and the inhibition at 20 µM [4] was -9.38%.
For COc1cc2c(cc1OC)-c1c/c(=N\c3c(C)cc(C)cc3C)n(C)c(=O)n1CC2 [Trequinsin hydrochloride], the “% conversion” value [3] was 28.50%.
C[C@]12C=CC(=O)C=C1CC[C@H]1[C@@H]3C[C@@H](O)[C@](O)(C(=O)CO)[C@@]3(C)C[C@H](O)[C@@]12F [Triamcinolone] was tested, and the “% conversion” value [3] was 30.89%.
With Nc1nc(N)c2nc(-c3ccccc3)c(N)nc2n1 [Triamterene] the “% conversion” value [3] was 36.11%.
CN1CCN(CCCN2c3ccccc3Sc3ccc(C(F)(F)F)cc32)CC1 [Trifluoperazine dihydrochloride] was tested, and the inhibition at 20 µM was -68.5%.
With O=C(CCCN1CCC(O)(c2cccc(C(F)(F)F)c2)CC1)c1ccc(F)cc1 [Trifluperidol hydrochloride] the “% conversion” value [3] was 30.59%.
With CN(C)CCCN1c2ccccc2Sc2ccc(C(F)(F)F)cc21 [Triflupromazine hydrochloride] the inhibition at 20 µM was -23.1%.
For CC(=O)Oc1cc(C(F)(F)F)ccc1C(=O)O [Triflusal], the “% conversion” value [3] was 27.02%.
With OC(CCN1CCCCC1)(c1ccccc1)C1CCCCC1 (centres unmarked) [Trihexyphenidyl hydrochloride] the “% conversion” value [3] was 39.76% and the inhibition at 20 µM [4] was -9.65%.
With COc1cc(Cc2cnc(N)nc2N)cc(OC)c1OC [Trimethoprim] the “% conversion” value [3] was 37.33%.
In the case of CC(CN(C)C)CN1c2ccccc2CCc2ccccc21 (centres unmarked) [Trimipramine maleate], the “% conversion” value [3] is reported as 41.64% and the inhibition at 20 µM [4] is reported as -15.1%.
For Cc1ccc(/C(=C\CN2CCCC2)c2ccccn2)cc1.Cl [Triprolidine hydrochloride], the “% inhibition” value [7] was -7.68% and the “% conversion” value [3] was 39.09%.
N[C@@H]1[C@H]2CN(c3nc4c(cc3F)c(=O)c(C(=O)O)cn4-c3ccc(F)cc3F)C[C@@H]12 [Trovafloxacin mesylate] was tested, and the “Plate 1 (% inhibition)” value [1] was -24.51% and the “Plate 1 (% conversion)” value [2] was 44.10%.
N[C@@H]1[C@H]2CN(c3nc4c(cc3F)c(=O)c(C(=O)O)cn4-c3ccc(F)cc3F)C[C@@H]12 [Trovafloxacin] was tested, and the “Plate 5 (% inhibition)” value [5] was -0.64% and the “Plate 5 (% conversion)” value [6] was 36.53%.
For NCCc1c[nH]c2ccccc12 [Tryptamine hydrochloride], the “Plate 1 (% conversion)” value was 34.54% and the “Plate 1 (% inhibition)” value was 3.95%.
CC(C)(C)NCC(O)c1ccccc1Cl (centres unmarked) [Tulobuterol hydrochloride] was tested, and the “% conversion” value [3] was 41.18% and the inhibition at 20 µM [4] was -13.8%.
